Results from the supplement of paper PMC10307832.

Tests used:
Experiment in all cases: relative viability (nuclei count vs DMSO), 5 days (fraction); higher = more cells survive
[1] = compound: O=C(Nc1c[nH]nc1-c1nc2ccc(CN3CCOCC3)cc2[nH]1)NC1CC1 [AT9283] + CS(=O)(=O)CCNCc1ccc(-c2ccc3ncnc(Nc4ccc(OCc5cccc(F)c5)c(Cl)c4)c3c2)o1 [Lapatinib] (partner 2 µM)
Procedure, shortened: (§1)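 Values are medians from duplicate plates. Each reflects relative viability, defined as the nuclei count of treated wells over that of vehicle wells. Lung cancer cell lines in 1536-well plates were pin-tool dosed one day after seeding with one drug alone or with a fixed anchor-drug dose plus five library-drug doses (not always all listed) in √10 steps, then fixed, stained and imaged at 4× after 5 days.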

[2] = compound: O=C(Nc1c[nH]nc1-c1nc2ccc(CN3CCOCC3)cc2[nH]1)NC1CC1 [AT9283] + Nc1ncn([C@H]2C[C@H](O)[C@@H](CO)O2)c(=O)n1 [Decitabine] (partner 2 µM)
Procedure, shortened: as §1

[3] = compound: C#Cc1cccc(Nc2ncnc3cc(OCCOC)c(OCCOC)cc23)c1 [Erlotinib] + NC(=O)Nc1cc(-c2cccc(F)c2)sc1C(=O)N[C@H]1CCCNC1 [AZD7762] (partner 0.2 µM)
Procedure, shortened: as §1

[4] = compound: C#Cc1cccc(Nc2ncnc3cc(OCCOC)c(OCCOC)cc23)c1 [Erlotinib] + CCNC(=O)c1noc(-c2cc(C(C)C)c(O)cc2O)c1-c1ccc(CN2CCOCC2)cc1 [Luminespib] (partner 0.01 µM)
Procedure, shortened: as §1

[5] = compound: O=C(Nc1c[nH]nc1-c1nc2ccc(CN3CCOCC3)cc2[nH]1)NC1CC1 [AT9283] + CCNC(=O)c1noc(-c2cc(C(C)C)c(O)cc2O)c1-c1ccc(CN2CCOCC2)cc1 [Luminespib] (partner 0.01 µM)
Procedure, shortened: as §1

| Cell Line | relative viability ([1]; first compound 0.003 µM) | relative viability ([1]; first compound 0.03 µM) | relative viability ([1]; first compound 0.09487 µM) | relative viability ([1]; first compound 0.3 µM) | relative viability ([2]; first compound 0.003 µM) | relative viability ([2]; first compound 0.03 µM) | relative viability ([2]; first compound 0.09487 µM) | relative viability ([2]; first compound 0.3 µM) | relative viability ([3]; first compound 0.02 µM) | relative viability ([3]; first compound 0.2 µM) | relative viability ([3]; first compound 0.6325 µM) | relative viability ([3]; first compound 2 µM) | relative viability ([4]; first compound 0.02 µM) | relative viability ([4]; first compound 0.2 µM) | relative viability ([4]; first compound 0.6325 µM) | relative viability ([4]; first compound 2 µM) | relative viability ([5]; first compound 0.003 µM) | relative viability ([5]; first compound 0.03 µM) | relative viability ([5]; first compound 0.09487 µM) | relative viability ([5]; first compound 0.3 µM) |
| --- | --- | --- | --- | --- | --- | --- | --- | --- | --- | --- | --- | --- | --- | --- | --- | --- | --- | --- | --- | --- |
| LC-2-ad | 0.938 | 0.0948 | 0.0976 | 0.0947 | 0.872 | 0.685 | 0.471 | 0.255 | 0.843 | 0.508 | 0.514 | 0.389 | 1.13 | 0.976 | 1.17 | 0.745 | 0.918 | 0.594 | 0.357 | 0.263 |
| LCLC-97TM1 | 0.746 | 0.15 | 0.129 | 0.126 | 0.199 | 0.175 | 0.104 | 0.089 | 0.291 | 0.309 | 0.356 | 0.196 | 0.901 | 0.798 | 0.948 | 0.824 | 0.662 | 0.634 | 0.137 | 0.157 |
| LK-2 | 0.788 | 0.26 | 0.198 | 0.181 | 0.215 | 0.116 | 0.113 | 0.0972 | 0.376 | 0.366 | 0.438 | 0.268 | 0.151 | 0.166 | 0.203 | 0.15 | 0.195 | 0.19 | 0.176 | 0.206 |
| LOU-NH91 | 0.688 | 0.646 | 0.566 | 0.419 | 0.83 | 0.77 | 0.522 | 0.509 | 0.682 | 0.692 | 0.769 | 0.684 | 0.412 | 0.297 | 0.364 | 0.31 | 0.321 | 0.353 | 0.358 | 0.32 |
| LU99A | 0.846 | 0.357 | 0.188 | 0.207 | 0.868 | 0.404 | 0.195 | 0.226 | 0.414 | 0.414 | 0.295 | 0.418 | 0.27 | 0.257 | 0.231 | 0.223 | 0.24 | 0.301 | 0.225 | 0.221 |
| LXF-289 | 0.901 | 0.691 | 0.163 | 0.135 | 0.354 | 0.423 | 0.214 | 0.139 | 1.13 | 1.07 | 1.05 | 1.03 | 0.813 | 0.622 | 0.707 | 0.634 | 0.731 | 0.742 | 0.326 | 0.144 |
| NCI-H23 | 0.968 | 0.395 | 0.225 | 0.207 | 0.26 | 0.293 | 0.228 | 0.246 | 0.291 | 0.177 | 0.198 | 0.219 | 0.218 | – | 0.202 | 0.217 | 0.216 | 0.234 | 0.204 | 0.167 |
